{"source": "patent US9163032B2", "about": "“Esters of DCPLA and methods of treatment using the same” (Blanchette Rockefeller Neurosciences Institute, priority 2011, dated 2015)", "key": {"PKC-δ": {"biological_target": "PKC-δ (Homo sapiens, UniProt Q05655)", "sequence (Q05655 whole entry)": "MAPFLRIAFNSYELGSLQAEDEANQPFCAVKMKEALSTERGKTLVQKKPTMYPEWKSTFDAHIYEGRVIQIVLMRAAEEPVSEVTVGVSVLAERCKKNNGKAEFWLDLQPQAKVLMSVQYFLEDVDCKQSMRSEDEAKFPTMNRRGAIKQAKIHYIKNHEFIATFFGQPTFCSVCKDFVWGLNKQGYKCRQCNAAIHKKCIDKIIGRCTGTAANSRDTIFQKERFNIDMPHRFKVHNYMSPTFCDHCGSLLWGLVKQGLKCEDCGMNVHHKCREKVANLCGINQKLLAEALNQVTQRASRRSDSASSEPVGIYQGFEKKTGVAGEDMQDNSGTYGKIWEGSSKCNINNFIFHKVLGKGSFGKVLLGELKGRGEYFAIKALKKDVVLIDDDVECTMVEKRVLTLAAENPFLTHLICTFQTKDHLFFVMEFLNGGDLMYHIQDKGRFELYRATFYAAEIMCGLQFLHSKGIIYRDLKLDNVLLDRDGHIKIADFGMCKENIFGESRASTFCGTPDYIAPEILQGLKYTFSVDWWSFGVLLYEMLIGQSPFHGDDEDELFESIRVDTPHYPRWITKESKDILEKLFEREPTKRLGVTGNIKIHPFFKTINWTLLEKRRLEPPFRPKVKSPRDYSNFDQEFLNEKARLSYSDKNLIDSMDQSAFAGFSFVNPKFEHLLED", "test": "PKC activation assay with purified PKC-δ isozyme", "assay_type": "biochemical", "method": "For measurement of PKC activation by DCPLA-ME, activation of recombinant PKC-α, PKC-ε, and PKC-δ was evaluated. DCPLA-ME induced activation was measured in the absence of diacylglycerol (DAG) and phosphatidylserine (PS) as described earlier. See Nelson, T. J. et al., J. Biol. Chem., 2009, 284: 34514-34521, and Kanno, T. et al., J. Cell Physiol., 2009, 221: 183-188. Individual enzymes were incubated for 15 min at 37° C. in the presence of 10 μM histones, 4.89 mM CaCl2, 10 mM MgCl2, 20 mM HEPES (pH 7.4), 0.8 mM EDTA, 4 mM EGTA, 4% glycerol, 8 μg/ml aprotinin, 8 μg/ml leupeptin, 2 mM benzamidine, and 0.5 μCi of [γ-^32P]ATP. Purified PKC-α, PKC-ε and PKC-δ were preincubated with DCPLA-ME for 5 min at room temperature. [^32P]-Phosphoprotein formation was measured by adsorption onto phosphocellulose.\nTo measure PKC, 10 μl of cell homogenate or purified PKC isozyme was incubated for 15 min at 37° C. in the presence of 10 μM histones, 4.89 mM CaCl2, 1.2 μg/μl phosphatidyl-L-serine, 0.18 μg/μl 1,2-dioctanoyl-sn-glycerol, 10 mM MgCl2, 20 mM HEPES (pH 7.4), 0.8 mM EDTA, 4 mM EGTA, 4% glycerol, 8 μg/ml aprotinin, 8 μg/ml leupeptin, and 2 mM benzamidine. [γ32P]ATP (0.5 μCi) was added and 32P-phosphoprotein formation was measured by adsorption onto phosphocellulose as described previously. See Nelson et al., J. Neurochemistry, 1995, 65: 2350-2357. […]"}, "[1]": {"system": "primary human cortical neurons", "test": "40 day culture of human primary cortical neurons: survival, synapses, branching", "assay_type": "cell-based", "details": "100 nM", "method": "To examine the effects of PKC-ε activation, cultured human cortical neurons in serum-free artificial medium were exposed to 100 nM DCPLA-ME added every three days, along with 50% medium replacement, for 40 days. More specifically, human primary cortical neurons were grown in Neuronal Medium (ScienCell Cat No#1521) containing neuronal growth supplement (NGS) (Sciencell Cat No#1562).\nCells were plated on poly-l-lysine (0.001%) coated plates at a density of >10000 cells/cm2. Half of the media was replaced by new media every 3 days. DCPLA-ME was dissolved in 100% ethanol and added at 100 nM final concentration. Fresh DCPLA-ME (100 nM) was added every 3 days during media change. The experiments were continued for 40 days.\nHuman primary neurons (ScienCell Research Laboratories, USA) were thawed and plated on poly-L-lysine coated plates at a density of 10,000 cells per cm^2 and were maintained in neuronal medium (DMEM+high glucose+neuronal growth supplement, ScienCell Research Laboratories, USA) following the recommended method. Primary human neurons were then treated with either DCPLA-ME (100 nM) or bryostatin 1 (0.27 nM) for 40 days. Fresh drug was added every third day with 50% media change."}}, "note": "Entries after “also recorded” stand apart in the source; their conditions may differ.", "data": [{"molecule": "CCCCCC1CC1CC1CC1CCCCCCCC(=O)OC", "note": "(stereo not drawn) [DCPLA-ME, DCPLA methyl ester]", "values": [{"measurement": "effect on PKC-δ", "setting": "PKC-δ", "result": "did not have a major effect; also recorded: less inhibitory effect"}, {"measurement": "number of synapses", "setting": "[1]; 30 day old neurons", "result": "significantly increased"}, {"measurement": "Expression levels of PKCε, PSD-95 and synaptophysin", "setting": "[1]; 40 days, compared to control or bryostatin 1-treated cells", "result": "significantly higher"}]}]}
